Measurements: ChEMBL document CHEMBL4507269, “Data for DCP probe BAY-386” (2021)

Tests used:
[1] = target: Phosphatidylinositol 4,5-bisphosphate 3-kinase catalytic subunit gamma isoform (Homo sapiens) (UniProt P48736); details: Compound concentration 1000.0 nM
[2] = target: Phosphatidylinositol 4,5-bisphosphate 3-kinase catalytic subunit beta isoform (Homo sapiens) (UniProt P42338); details: Compound concentration 1000.0 nM
[3] = target: T1, D(4) dopamine receptor (Homo sapiens) (UniProt P21917); details: Compound concentration 10.0 uM
T1 sequence (whole entry): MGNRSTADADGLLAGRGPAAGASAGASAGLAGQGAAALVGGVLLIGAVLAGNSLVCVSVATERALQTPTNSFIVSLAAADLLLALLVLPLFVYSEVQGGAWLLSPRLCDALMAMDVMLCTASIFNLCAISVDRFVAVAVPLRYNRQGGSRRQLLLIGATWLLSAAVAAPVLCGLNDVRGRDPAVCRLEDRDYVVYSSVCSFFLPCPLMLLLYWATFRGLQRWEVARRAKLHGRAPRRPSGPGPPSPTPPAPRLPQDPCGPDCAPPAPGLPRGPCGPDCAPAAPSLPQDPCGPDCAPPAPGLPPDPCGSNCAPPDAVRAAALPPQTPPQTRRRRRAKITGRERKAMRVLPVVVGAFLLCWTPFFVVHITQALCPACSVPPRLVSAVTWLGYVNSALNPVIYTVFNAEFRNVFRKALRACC

[4] = tested on: Tyrosine-protein kinase ABL1 (Homo sapiens), P00519 [F317I]; details: Compound concentration 1000.0 nM
[5] = target: Tyrosine-protein kinase Blk (Homo sapiens) (UniProt P51451); details: Compound concentration 1000.0 nM
[6] = target: Serine/threonine-protein kinase MAK (Homo sapiens) (UniProt P20794); details: Compound concentration 1000.0 nM
[7] = target: Mu-type opioid receptor (Homo sapiens) (UniProt P35372); details: Compound concentration 10.0 uM
[8] = target: Dual specificity mitogen-activated protein kinase kinase 1 (Homo sapiens) (UniProt Q02750); details: Compound concentration 1000.0 nM
[9] = target: Serine/threonine-protein kinase haspin (Homo sapiens) (UniProt Q8TF76); details: Compound concentration 1000.0 nM
[10] = target: Mitogen-activated protein kinase 1 (Homo sapiens) (UniProt P28482); details: Compound concentration 1000.0 nM
[11] = target: SNF-related serine/threonine-protein kinase (Homo sapiens) (UniProt Q9NRH2); details: Compound concentration 1000.0 nM
[12] = target: Calcium/calmodulin-dependent protein kinase type II subunit alpha (Homo sapiens) (UniProt Q9UQM7); details: Compound concentration 1000.0 nM
[13] = target: Casein kinase I isoform alpha-like (Homo sapiens) (UniProt Q8N752); details: Compound concentration 1000.0 nM
[14] = target: GABA-A receptor; anion channel (Rattus norvegicus) (UniProt O09028+P15431+P18506+P18508+P19969+P20236+P23574+P23576+P28471+P28473+P30191+P62813+P63079+P63138+Q91ZM7+Q9ES14); details: Compound concentration 10.0 uM
[15] = target: Death-associated protein kinase 2 (Homo sapiens) (UniProt Q9UIK4); details: Compound concentration 1000.0 nM
[16] = target: AP2-associated protein kinase 1 (Homo sapiens) (UniProt Q2M2I8); details: Compound concentration 1000.0 nM
[17] = tested on: Tyrosine-protein kinase ABL1 (Homo sapiens), P00519 [Y253F]; details: Compound concentration 1000.0 nM
[18] = target: Serine/threonine-protein kinase 3 (Homo sapiens) (UniProt Q13188); details: Compound concentration 1000.0 nM
[19] = target: T2, 5-hydroxytryptamine receptor 1A (Homo sapiens) (UniProt P08908); details: Compound concentration 10.0 uM
T2 sequence (whole entry): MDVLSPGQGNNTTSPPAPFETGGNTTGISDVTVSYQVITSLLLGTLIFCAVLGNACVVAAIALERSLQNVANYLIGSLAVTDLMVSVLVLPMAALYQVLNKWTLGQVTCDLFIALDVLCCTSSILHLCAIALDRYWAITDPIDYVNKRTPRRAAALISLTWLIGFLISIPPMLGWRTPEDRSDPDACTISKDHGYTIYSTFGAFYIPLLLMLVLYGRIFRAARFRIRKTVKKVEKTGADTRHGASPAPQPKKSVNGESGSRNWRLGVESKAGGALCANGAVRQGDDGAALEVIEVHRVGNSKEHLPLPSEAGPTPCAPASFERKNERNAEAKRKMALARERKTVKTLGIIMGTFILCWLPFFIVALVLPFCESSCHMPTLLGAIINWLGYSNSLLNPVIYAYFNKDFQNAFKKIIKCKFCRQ

[20] = target: Protein-tyrosine kinase 2-beta (Homo sapiens) (UniProt Q14289); details: Compound concentration 1000.0 nM
[21] = target: Calcium/calmodulin-dependent protein kinase type 1D (Homo sapiens) (UniProt Q8IU85); details: Compound concentration 1000.0 nM
[22] = tested on: Hepatocyte growth factor receptor (Homo sapiens), P08581 [M1250T]; details: Compound concentration 1000.0 nM
[23] = target: Activin receptor type-1 (Homo sapiens) (UniProt Q04771); details: Compound concentration 1000.0 nM
[24] = target: Serine/threonine-protein kinase Nek7 (Homo sapiens) (UniProt Q8TDX7); details: Compound concentration 1000.0 nM
[25] = target: Casein kinase II subunit alpha' (Homo sapiens) (UniProt P19784); details: Compound concentration 1000.0 nM
[26] = target: Serine/threonine-protein kinase MARK2 (Homo sapiens) (UniProt Q7KZI7); details: Compound concentration 1000.0 nM
[27] = target: Dual specificity mitogen-activated protein kinase kinase 4 (Homo sapiens) (UniProt P45985); details: Compound concentration 1000.0 nM
[28] = target: Tyrosine-protein kinase ABL2 (Homo sapiens) (UniProt P42684); details: Compound concentration 1000.0 nM
[29] = target: Rho-associated protein kinase 2 (Homo sapiens) (UniProt O75116); details: Compound concentration 1000.0 nM
[30] = tested on: ALK tyrosine kinase receptor (Homo sapiens), Q9UM73 [L1196M]; details: Compound concentration 1000.0 nM
[31] = target: TGF-beta receptor type-2 (Homo sapiens) (UniProt P37173); details: Compound concentration 1000.0 nM
[32] = target: Non-receptor tyrosine-protein kinase TYK2 (Homo sapiens) (UniProt P29597); details: Compound concentration 1000.0 nM
Chain of Non-receptor tyrosine-protein kinase TYK2 (Homo sapiens) (P29597 whole entry): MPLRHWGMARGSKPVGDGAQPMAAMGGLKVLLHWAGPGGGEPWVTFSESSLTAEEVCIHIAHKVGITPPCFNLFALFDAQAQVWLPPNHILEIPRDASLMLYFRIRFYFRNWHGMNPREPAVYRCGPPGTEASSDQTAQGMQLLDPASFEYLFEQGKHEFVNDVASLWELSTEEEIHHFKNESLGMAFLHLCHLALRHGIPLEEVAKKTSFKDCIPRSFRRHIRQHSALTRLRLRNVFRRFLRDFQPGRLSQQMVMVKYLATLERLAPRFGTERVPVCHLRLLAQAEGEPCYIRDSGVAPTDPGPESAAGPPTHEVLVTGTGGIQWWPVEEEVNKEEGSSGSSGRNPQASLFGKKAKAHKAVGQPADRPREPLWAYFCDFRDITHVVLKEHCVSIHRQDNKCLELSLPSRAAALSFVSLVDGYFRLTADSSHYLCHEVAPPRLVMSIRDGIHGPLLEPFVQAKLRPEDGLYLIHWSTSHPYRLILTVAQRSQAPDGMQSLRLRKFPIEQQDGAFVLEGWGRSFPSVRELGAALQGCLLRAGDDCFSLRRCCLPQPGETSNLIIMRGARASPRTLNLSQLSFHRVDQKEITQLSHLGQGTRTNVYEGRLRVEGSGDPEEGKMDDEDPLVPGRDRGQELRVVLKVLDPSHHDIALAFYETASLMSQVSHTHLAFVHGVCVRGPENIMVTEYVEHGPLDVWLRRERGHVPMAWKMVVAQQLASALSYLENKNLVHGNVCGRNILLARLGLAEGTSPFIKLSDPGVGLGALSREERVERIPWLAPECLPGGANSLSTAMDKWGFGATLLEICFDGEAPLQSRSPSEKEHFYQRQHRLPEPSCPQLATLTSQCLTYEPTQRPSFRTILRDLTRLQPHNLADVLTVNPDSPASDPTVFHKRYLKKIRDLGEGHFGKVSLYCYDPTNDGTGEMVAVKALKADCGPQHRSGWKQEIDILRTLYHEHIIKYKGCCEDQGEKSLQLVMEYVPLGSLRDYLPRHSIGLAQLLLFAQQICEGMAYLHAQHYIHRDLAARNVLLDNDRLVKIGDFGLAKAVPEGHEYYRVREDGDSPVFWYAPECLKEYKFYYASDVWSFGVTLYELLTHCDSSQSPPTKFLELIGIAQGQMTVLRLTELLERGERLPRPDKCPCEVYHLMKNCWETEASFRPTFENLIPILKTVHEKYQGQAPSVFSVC

Chain of Serine/threonine-protein kinase MARK2 (Homo sapiens) (Q7KZI7 whole entry): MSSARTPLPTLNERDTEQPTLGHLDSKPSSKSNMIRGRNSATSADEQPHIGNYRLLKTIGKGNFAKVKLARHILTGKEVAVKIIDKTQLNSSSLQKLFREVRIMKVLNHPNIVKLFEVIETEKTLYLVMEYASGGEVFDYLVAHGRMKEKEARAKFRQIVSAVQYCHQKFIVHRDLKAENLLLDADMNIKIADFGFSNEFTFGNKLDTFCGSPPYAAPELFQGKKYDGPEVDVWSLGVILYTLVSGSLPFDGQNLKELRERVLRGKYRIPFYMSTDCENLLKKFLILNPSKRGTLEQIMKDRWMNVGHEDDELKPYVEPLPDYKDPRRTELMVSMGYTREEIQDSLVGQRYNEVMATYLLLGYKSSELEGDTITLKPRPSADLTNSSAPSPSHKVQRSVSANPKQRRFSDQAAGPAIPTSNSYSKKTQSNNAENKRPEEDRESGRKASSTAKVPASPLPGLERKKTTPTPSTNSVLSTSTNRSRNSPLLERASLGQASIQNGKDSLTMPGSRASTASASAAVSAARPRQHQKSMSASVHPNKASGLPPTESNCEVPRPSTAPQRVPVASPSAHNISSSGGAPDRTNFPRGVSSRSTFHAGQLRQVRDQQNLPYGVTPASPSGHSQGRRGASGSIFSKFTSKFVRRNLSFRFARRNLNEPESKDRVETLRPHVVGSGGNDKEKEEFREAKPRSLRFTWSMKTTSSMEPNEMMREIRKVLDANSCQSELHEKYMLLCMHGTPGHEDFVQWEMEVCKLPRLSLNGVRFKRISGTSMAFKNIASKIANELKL
Chain of Phosphatidylinositol 4,5-bisphosphate 3-kinase catalytic subunit gamma isoform (Homo sapiens) (P48736 whole entry, looked up, canonical isoform): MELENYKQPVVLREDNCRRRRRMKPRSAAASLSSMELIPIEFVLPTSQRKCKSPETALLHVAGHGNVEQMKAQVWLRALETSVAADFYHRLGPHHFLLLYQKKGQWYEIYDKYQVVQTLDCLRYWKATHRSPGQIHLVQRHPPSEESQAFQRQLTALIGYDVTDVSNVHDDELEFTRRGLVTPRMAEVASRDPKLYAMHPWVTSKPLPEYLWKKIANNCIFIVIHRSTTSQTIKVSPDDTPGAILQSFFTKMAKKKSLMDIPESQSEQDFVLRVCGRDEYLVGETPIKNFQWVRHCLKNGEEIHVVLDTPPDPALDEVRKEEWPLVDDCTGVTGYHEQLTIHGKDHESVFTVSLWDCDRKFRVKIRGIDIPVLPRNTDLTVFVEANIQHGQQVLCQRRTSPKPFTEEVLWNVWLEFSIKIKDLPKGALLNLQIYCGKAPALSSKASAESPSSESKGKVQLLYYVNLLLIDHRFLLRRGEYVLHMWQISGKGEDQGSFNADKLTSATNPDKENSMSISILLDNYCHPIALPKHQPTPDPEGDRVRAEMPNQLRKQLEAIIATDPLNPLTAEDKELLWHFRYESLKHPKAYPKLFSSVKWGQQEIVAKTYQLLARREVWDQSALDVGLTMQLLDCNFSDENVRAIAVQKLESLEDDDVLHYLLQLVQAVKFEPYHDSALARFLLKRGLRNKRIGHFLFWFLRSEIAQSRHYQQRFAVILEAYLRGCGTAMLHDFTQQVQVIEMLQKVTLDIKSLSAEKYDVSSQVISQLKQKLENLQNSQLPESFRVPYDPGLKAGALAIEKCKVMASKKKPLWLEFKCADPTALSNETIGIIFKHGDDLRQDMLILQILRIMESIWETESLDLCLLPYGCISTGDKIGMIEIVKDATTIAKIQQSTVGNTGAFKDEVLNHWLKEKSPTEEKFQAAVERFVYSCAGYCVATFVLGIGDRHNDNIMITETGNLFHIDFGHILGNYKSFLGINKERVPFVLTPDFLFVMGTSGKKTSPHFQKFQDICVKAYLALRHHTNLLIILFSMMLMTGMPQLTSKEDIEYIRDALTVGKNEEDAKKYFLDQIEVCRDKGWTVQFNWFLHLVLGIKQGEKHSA
Chain of AP2-associated protein kinase 1 (Homo sapiens) (Q2M2I8 whole entry, looked up): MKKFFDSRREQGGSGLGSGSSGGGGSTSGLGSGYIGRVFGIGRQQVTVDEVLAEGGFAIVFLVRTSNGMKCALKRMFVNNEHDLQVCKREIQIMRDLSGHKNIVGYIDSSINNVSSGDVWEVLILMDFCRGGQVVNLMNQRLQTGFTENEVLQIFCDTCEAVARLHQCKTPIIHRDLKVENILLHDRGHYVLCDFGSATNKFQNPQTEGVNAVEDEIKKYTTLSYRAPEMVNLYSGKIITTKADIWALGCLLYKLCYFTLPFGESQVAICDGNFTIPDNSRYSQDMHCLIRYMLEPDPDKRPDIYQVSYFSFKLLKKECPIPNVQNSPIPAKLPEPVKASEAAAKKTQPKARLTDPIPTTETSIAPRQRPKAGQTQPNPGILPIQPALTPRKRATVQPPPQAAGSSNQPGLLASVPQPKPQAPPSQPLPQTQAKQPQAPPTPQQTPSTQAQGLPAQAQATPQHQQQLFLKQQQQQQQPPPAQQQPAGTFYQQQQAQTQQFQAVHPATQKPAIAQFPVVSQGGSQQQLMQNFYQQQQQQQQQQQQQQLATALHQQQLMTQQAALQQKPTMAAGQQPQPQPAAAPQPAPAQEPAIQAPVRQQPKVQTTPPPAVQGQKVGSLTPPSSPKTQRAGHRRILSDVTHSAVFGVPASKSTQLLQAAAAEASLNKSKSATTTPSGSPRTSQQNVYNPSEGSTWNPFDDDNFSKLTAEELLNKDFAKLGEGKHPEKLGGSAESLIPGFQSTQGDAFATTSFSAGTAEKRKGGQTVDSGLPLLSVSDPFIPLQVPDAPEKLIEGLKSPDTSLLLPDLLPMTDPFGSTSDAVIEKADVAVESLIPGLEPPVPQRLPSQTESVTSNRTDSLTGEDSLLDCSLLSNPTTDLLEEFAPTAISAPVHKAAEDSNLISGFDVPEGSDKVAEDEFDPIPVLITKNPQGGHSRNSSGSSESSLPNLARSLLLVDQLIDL
Chain of Mu-type opioid receptor (Homo sapiens) (P35372 whole entry): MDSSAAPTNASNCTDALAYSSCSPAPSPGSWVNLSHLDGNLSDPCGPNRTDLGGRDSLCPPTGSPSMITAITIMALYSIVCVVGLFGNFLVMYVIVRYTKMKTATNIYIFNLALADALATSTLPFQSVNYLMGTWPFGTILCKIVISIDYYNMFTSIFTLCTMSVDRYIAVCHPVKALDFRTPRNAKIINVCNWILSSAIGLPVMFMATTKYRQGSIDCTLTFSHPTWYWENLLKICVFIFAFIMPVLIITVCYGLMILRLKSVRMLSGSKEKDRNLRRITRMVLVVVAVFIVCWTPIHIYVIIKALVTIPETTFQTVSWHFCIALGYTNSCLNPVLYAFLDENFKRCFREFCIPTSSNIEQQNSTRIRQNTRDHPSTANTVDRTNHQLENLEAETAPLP
Chain of Dual specificity mitogen-activated protein kinase kinase 1 (Homo sapiens) (Q02750 whole entry): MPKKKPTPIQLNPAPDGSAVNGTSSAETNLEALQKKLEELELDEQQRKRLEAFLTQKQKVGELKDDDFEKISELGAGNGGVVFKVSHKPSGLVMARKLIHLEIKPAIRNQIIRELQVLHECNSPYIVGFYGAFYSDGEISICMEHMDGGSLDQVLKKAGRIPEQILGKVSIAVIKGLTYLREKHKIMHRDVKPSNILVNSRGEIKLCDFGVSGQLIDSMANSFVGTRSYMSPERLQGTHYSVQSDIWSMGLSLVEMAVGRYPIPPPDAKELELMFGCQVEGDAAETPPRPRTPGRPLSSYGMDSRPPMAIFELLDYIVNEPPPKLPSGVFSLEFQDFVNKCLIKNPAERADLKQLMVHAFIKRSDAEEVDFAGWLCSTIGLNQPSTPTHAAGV

O=C(N1CCS(=O)(=O)CC1)N1C[C@H](c2ccc(OC(F)(F)F)cc2)C[C@H](c2nc(C3CC3)no2)C1 [BAY-386]
inactive: residual activity [1] 100% | residual activity [2] 66% | inhibition [3] 5.24% | residual activity [4] 80% | residual activity [5] 100% | residual activity [6] 100% | inhibition [7] -4.38% | residual activity [8] 91% | residual activity [9] 95% | residual activity [10] 95% | residual activity [11] 93% | residual activity [12] 100% | residual activity [13] 100% | inhibition [14] -2.64% | residual activity [15] 100% | residual activity [16] 99% | residual activity [17] 100% | residual activity [18] 100% | inhibition [19] 14.7% | residual activity [20] 99% | residual activity [21] 91% | residual activity [22] 100% | residual activity [23] 100% | residual activity [24] 100% | residual activity [25] 100% | residual activity [26] 100% | residual activity [27] 95% | residual activity [28] 100% | residual activity [29] 98% | residual activity [30] 65% | residual activity [31] 100% | residual activity [32] 94%

Cc1noc([C@H]2C[C@@H](c3ccc(C(F)(F)F)cc3)CN(C(=O)N3CCS(=O)(=O)C3)C2)n1 [BAY-448]
inactive: residual activity [1] 85% | residual activity [2] 99% | inhibition [3] 6.3% | residual activity [4] 100% | residual activity [5] 100% | residual activity [6] 100% | inhibition [7] 2.23% | residual activity [8] 100% | residual activity [9] 100% | residual activity [10] 100% | residual activity [11] 100% | residual activity [12] 100% | residual activity [13] 100% | inhibition [14] 28.4% | residual activity [15] 100% | residual activity [16] 100% | residual activity [17] 100% | residual activity [18] 100% | inhibition [19] -4.52% | residual activity [20] 100% | residual activity [21] 100% | residual activity [22] 100% | residual activity [23] 100% | residual activity [24] 100% | residual activity [25] 90% | residual activity [26] 100% | residual activity [27] 100% | residual activity [28] 100% | residual activity [29] 100% | residual activity [30] 100% | residual activity [31] 100% | residual activity [32] 100%
